Results from patent US12350250B2, “Aggrelytes for treating ocular conditions” (The Regents of the University of Colorado, a Body Corporate, priority 2022, dated 2025).

What was measured:
[1] = system: protein thiols of solubilized human lens WI protein; test: Protein thiol content in solubilized protein from WI protein of aged lenses; format: biochemical; conditions: 500 μM aggrelyte, lenses 58 to 69 years old; for thiol content: 10 μg protein, GSH standard
Method: Protein thiol content in the solubilized protein from WI protein from aged lenses (58 to 69 years old) was evaluated. Immediately after treatment with aggrelytes as described in the foregoing examples, 0.15 mL samples were filtered through 10 kDa cutoff centrifugal filters at 4° C. Centrifugal filtration was repeated twice by adding 0.4 mL of 50 mM N2-bubbled sodium phosphate buffer to the retentate each time. Ten micrograms of protein from the final retentate was used for thiol content estimation using a Thiol Quantification Assay Kit (Abcam, Cambridge, MA) using reduced GSH as the standard.

[2] = system: human lenses; test: AcK in WS cortical and nuclear fractions of treated human lenses (LC-MS/MS); conditions: 1 mM, 72 h, vs untreated controls
Method: Mouse and human lenses were treated with aggrelytes as described in Example 10. Water-soluble proteins from mouse and human lenses were obtained as described in Example 13. Effects of aggrelyte treatment on AcK-bearing proteins in the WS fractions were evaluated by LC-MS/MS analysis as described in Example 6.

[3] = system: acetyllysine (AcK)-bearing proteins in solubilized human lens WI proteins; test: AcK-bearing proteins in solubilized human lens proteins (Western blot densitometry); format: biochemical; conditions: 500 μM, solubilized proteins of ten human lenses (65 to 75 years), vs Control
Description: Chemiluminescence was detected using an Enhanced Chemiluminescence Detection Kit (Thermo Scientific). Then the membrane was stained with Ponceau-S to visualize the proteins and normalize the detected AcK-bearing protein to the total protein load via densitometry.

[4] = system: αB-crystallin (αBC); test: Crystallin levels in solubilized human lens proteins (Western blot), αBC; format: biochemical; conditions: 500 μM, solubilized proteins of three human lenses; not significant
Method: (§1) The contents of crystalline proteins [αA-crystallin (αAC), αB-crystallin (αBC), β-crystallin (βC), and γ-crystallin (γC)] in the solubilized proteins of three human lenses treated with either Aggrelyte-2 or Aggrelyte-2C (500 μM) from Example 4 were determined by Western blot analysis as described for Example 5. Membranes were incubated with antibodies against αAC (1:14,000 dilution; Enzo Life Sciences, Catalog #ADI-SPA-221D), αBC (1:700,000 dilution; University of Iowa), βC (1:14,000 dilution; Santa Cruz Biotechnology, Catalog #sc-22745), and γC (1:7,000 dilution; Santa Cruz Biotechnology, Catalog #sc-22746). The secondary antibodies were HRP-conjugated anti-mouse IgG for αBC and HRP-conjugated […] (Cell Signaling Technology, Catalog #7074S) for αAC, βC, and γC. According to the supplier, the […] detects mostly βB1-crystallin and, to a lesser extent, βA1/3, βA2, βA4, βB2, and βB3-crystallin. The γC antibody reacts with γA, γB, γC, γD, γE, and γF-crystallin.

[5] = system: AcK in solubilized WI protein of human lenses; test: AcK in solubilized human lens proteins (LC-MS/MS); format: biochemical; conditions: 500 μM, 24 hours; for AcK level: solubilized WI protein, human lenses (55-67 years)
Method: Water-insoluble proteins were prepared from aged human lenses (55-67 years) as described in Example 3, and incubated with 0 or 500 μM Aggrelyte-2 or Aggrelyte-2C for 24 hours as described in Example 3. Solubilized WI protein fractions (0.5 mg/mL) and water soluble (WS) protein fractions (3 mg/mL from human lenses) were sequentially digested with enzymes as previously described (Nandi et al., 2019, Biochemistry, 58(9):1260-1274). The enzyme-digested samples were analyzed for AcK by LC-MS/MS using the standard addition method as previously described (id.) The AcK levels were calculated based on the protein input in the enzymatic digestions.

[6] = system: αA-crystallin (αAC); test: Crystallin levels in solubilized human lens proteins (Western blot), αAC; format: biochemical; conditions: 500 μM, solubilized proteins of three human lenses
Method: as §1

[7] = Stability of aggrelytes under physiological conditions (1H-NMR); format: physicochemical; conditions: 50 mM phosphate buffer, pH 7.4, 37° C.; for degraded during 3-day incubation: 3 days; for degraded during 7-day incubation: 7 days
Method: Aggrelyte-2 (N,S-diacetyl-L-cysteine methyl ester; Astatech Catalog #D95910) and Aggrelyte-2C (N-acetyl cysteine methyl ester; Sigma Aldrich Catalog #01042) (2 mg each) were incubated in 1 mL of 50 mM phosphate buffer, pH 7.4, at 37° C. Aliquots were withdrawn immediately after incubation (Day 0) and after 1, 3, and 7 days. Stability of the aggrelytes was tested using ^1H-NMR (in DMSO-d6) spectroscopy. The NMR peak integration values for the S-acetyl or N-acetyl cysteine methyl proton were compared with the cysteine methine proton.

[8] = system: human lenses; test: Stiffness and axial strain of ex vivo human lenses (Example 10); conditions: 1 mM, 72 h; for lens stiffness (displacement) vs untreated controls: human lenses (42-68 years), loads of 500 mg and 1000 mg; for axial strain vs controls: human lenses, 500 mg and 1000 mg loads
Method: In this example, the lenses were dissected from the eyes of mice (C57BL/6J, 5-8 months old, Jackson Laboratories, Stock No. 000664, n=4-5) by a posterior approach and incubated without (“Control”) or with Aggrelyte-2 or Aggrelyte-2C (1 mM) for 24 hours in serum-free and phenol-red-free MEM (297 mOsm) at 37° C. Lens stiffness was measured as previously described in Baradia, H. et al., (2010) Exp. Eye Res. 91, 300-307. Briefly, the lens was placed on a flat platform with the anterior side facing up, and a load was applied to the top of the lens at 100 mg increments for mouse lenses and at 250 mg increments for human lenses. The displacement in the lens axial diameter (in μm or mm) was measured using MATLAB software developed by Dr. Adrian Glasser, UK, and plotted against the load applied. The displacement at a specific load was used to determine differences in lens stiffness between the untreated control and aggrelyte-treated lenses.
Freshly obtained human lenses (42-68 years old, n=10-12) were incubated with or without Aggrelyte-2 or Aggrelyte-2C (1 mM) for a total of 72 h in phenol red-free MEM with a change in media containing freshly dissolved aggrelytes every 24 h. One lens from each donor pair was used as the control, and the other was treated with aggrelyte. After incubation, the lens stiffness was measured as described above. Axial strain was also calculated based on the following formula: […]

[9] = system: β-crystallin (βC); test: Crystallin levels in solubilized human lens proteins (Western blot), βC; format: biochemical; conditions: 500 μM, solubilized proteins of three human lenses
Method: as §1

COC(=O)[C@H](CSC(C)=O)NC(C)=O [Aggrelyte-2, N,S-diacetyl-L-cysteine methyl ester]
thiol content [1]: 0.3 to 0.7 µM
thiol content, fold higher than in the untreated controls [1]: 1.9 fold
AcK content, cortical protein fraction (LC-MS/MS) [2]: Significantly higher (p<0.05)
AcK, nuclear fraction (LC-MS/MS) [2]: not statistically greater
amount of AcK-bearing proteins (Western blot densitometry) [3]: significantly (p<0.001) increased
levels of αBC, fold higher than in the Aggrelyte-2C-treated samples [4]: 1.1 fold
levels of αBC, fold higher than in the Controls [4]: 1.2 fold
AcK levels, fold increase compared to Aggrelyte-2C-treated samples ([5]; combined mean values): 2.4 fold
AcK levels, fold increase compared to untreated controls ([5]; combined mean values): 1.9 fold
AcK level [5]: 1.5-2.1 nmol/mg protein
levels of αAC, fold higher than in the Aggrelyte-2C-treated samples [6]: 1.3 fold
degraded during 3-day incubation [7]: 30%
degraded during 7-day incubation [7]: 42%
lens stiffness (displacement) vs untreated controls [8]: significantly (p<0.01) reduced lens stiffness
axial strain vs controls [8]: significantly (p<0.01) reduced the axial strain
levels of βC vs Controls [9]: slightly but not significantly higher

COC(=O)[C@H](CS)NC(C)=O [Aggrelyte-2C, N-acetyl-L-cysteine methyl ester]
thiol content [1]: 1.1 to 1.6 µM
thiol content, fold higher than in the untreated controls [1]: 4.9 fold
thiol content, fold increase over Aggrelyte-2-treated samples [1]: 2.6 fold
amount of AcK-bearing proteins (Western blot densitometry) [3]: did not increase the AcK levels
AcK level [5]: 0.6-0.9 nmol/mg protein
degraded during 3-day incubation [7]: 21%
degraded during 7-day incubation [7]: 37%
lens stiffness (displacement) vs untreated controls [8]: did not demonstrate significant effects on displacement
axial strain vs controls [8]: did not have a significant effect
levels of βC vs Controls [9]: no effect
